Where two headings read alike, the source gives them in different places. One block for each compound: values may come before it.
Experiments:
multiple cell lines = assay: Proliferation of multiple cell lines (FIG. 59); type: cell-based; details: FIG. 59A-E
Protocol: Proliferation of multiple cell lines was evaluated for CMPD 5, CMPD 7, HLCL61, HLCL-65, and HLCL-66 (FIG. 59A-E).

JeKo cells = assay: Immunofluorescence staining of methylated H4(Me2)R3 / H3(Me2)R8; type: cell-based; details: FIG. 2F
Protocol: DAPI was used to stain nuclei.
Immunofluorescence assays for screening for presence of type II PRMT epigenetic marks (H4(SMe2)R3) compared to type I mark (H4(AMe2)R3). Cell lines were incubated for 24 hours with all the 14 compounds. After 24 hours, cells were fixed, blocked and treated with mAbs specific for symmetric dimethylation and asymmetric dimethylation of histone H4R3 respectively. Alexa Fluor 488 conjugated 2nd Ab was used for the staining of histone marks (green). Draq5 was used to stain nuclei (blue).

[1] = system: PRMT5 expression and phosphorylation levels in AML cells; assay: PRMT5 expression and phosphorylation after FLT3 inhibition; type: cell-based; details: FIG. 38C
Protocol: Whole cell lysates were prepared by suspending cell pellets in RIPA buffer for 20 min (1% NP-40, 0.1% SDS, 150 mM NaCl, 50 mM Tris, pH 8.0), then supplemented with 1× complete EDTA free protease inhibitor (Roche) and 1× PhosStop (Roche). Lysates were separated by 4-20% SDS-PAGE and transferred to PVDF membrane (GE Healthcare, Piscataway, N.J.). Membranes were blocked with 5% milk or BSA in 1×TBS with 0.1% Tween 20 for 1 hour at room temperature with shaking. Primary antibodies for ACTIN, GAPDH and FLT3 (Santa Cruz Biotechnology, Santa Cruz Calif.), P65 (Cell signaling), PRMT5 and SP1 (Millipore), H4R3, H3R8, H3 and H4 (Abcam), were diluted 1:1000 or 1:2000 in 5% milk or BSA and incubated for 1-2 hr at room temperature. Membranes were washed using 1×TBS-T, incubated with HRP-conjugated secondary antibodies diluted in 1×TBS-T with 5% milk or BSA, washed, and developed using SuperSignal West Dura Chemiluminescent Substrate (Thermo Scientific).

[2] = system: Mantle cell lymphoma cell line Jeko; assay: MTS anti-proliferation assay; type: cell-based
Protocol: MTS proliferation assays were performed according the CellTiter 96™ Aqueous Cell Proliferation Assay Technical Bulletin (Promega, Madison, Wis.). 5×10^5 cells were plated in each well of a 96-well plate at 37° C. and assayed for proliferation at 24, 48, and 72 hr. Proliferation signal at 50% of control was used as IC50 for growth.
(§1) Following the synthesis of 14 compounds, the anti-proliferation and pro-apoptotic activities of those compounds was evaluated in Mantle cell lymphoma cell line Jeko. Replicate cultures of Jeko were incubated in DMSO and the compounds for 24, 48 and 72 hours. FITC-Annexin V-PI stained flow cytometry was used to detect the apoptotic population of cells (Table 4).

[3] = target: T1, recombinant human PRMT5/MEP50 enzyme (Homo sapiens, UniProt O14744); assay: Epigenase PRMT methyltransferase (type II-specific) activity/inhibition assay kit; type: biochemical; details: 25 ng recombinant human PRMT5/MEP50 per reaction; read-out: Inhibition of PRMT5 mediated H4R3 methylation (IC50)
T1 construct: purchased BPS Bioscience
Protocol: The inhibition of PRMT5 mediated H4R3 methylation result was obtained with Epigenase™ PRMT methyltransferase (type II-specific) activity/inhibition assay kit. 25 ng recombinant human PRMT5/MEP50 enzyme (purchased from BPS Bioscience) was used in each reaction.

[4] = system: Mantle cell lymphoma cell line Jeko; assay: Induction of apoptosis, FITC-Annexin V-PI flow cytometry; type: cell-based
Protocol: Analysis by flow cytometry. Cell viability was also measured by flow cytometry at 24 and 48 hr using annexin-V-FITC and propidium iodide (PI) according to the manufacturer's instructions (BD Biosciences).
as §1

[5] = target: T2, affinity-purified hSWI/SNF associated PRMT5 (Homo sapiens, UniProt O14744); assay: Histone methyltransferase assay, [3H]SAM; type: biochemical; details: for inhibition of PRMT5 enzyme: 10 μM, FIG. 17B; for IC50: FIG. 16, 1-40 μM compound, HeLa S3 core histones, read-out: PRMT5 methylation activity IC50
T2 construct: made in house
Protocol: (§2) Histone methylation was performed in the presence of DMSO, and 1-40 μM inhibitor compounds. […] After 1.5 h incubation at 30° C., reaction mixtures were spotted on Whatman P-81 filter paper, washed five times with 10 mL of […] sodium carbonate buffer (pH 9.0) to remove unincorporated [3H]SAM, and methylated peptides were detected by scintillation counting.
Type II PRMT enzymes repress gene transcription and symmetrically dimethylate H3R8 and H4R3, while type I PRMT enzymes activate gene transcription and asymmetrically dimethylate H4R3. Purified PRMT5, PRMT1, PRMT4 and PRMT7 were obtained to perform the assay.
as §2, with “HLCL-32, HLCL-10, HLCL-61 and HLCL-64.” for “inhibitor compounds.”, “After a” for “After”, “C.” for “C.,”, “[^3H]SAM,” for “[3H]SAM,”

recombinant PRMT1 = target: T3, recombinant PRMT1 (Rattus norvegicus, UniProt Q63009); assay: Histone methyltransferase assay, [3H]SAM; type: biochemical
T3 construct: purchased Millipore 14-474
Protocol: as §2
as §2, with “HLCL-32, HLCL-10, HLCL-61 and HLCL-64.” for “inhibitor compounds.”, “After a” for “After”, “C.” for “C.,”, “[^3H]SAM,” for “[3H]SAM,”

[6] = In vivo pharmacokinetics, plasma concentration; parameters: species or system Mouse; details: for concentration at 0.08 h / concentration at 0.17 h / concentration at 0.33 h / concentration at 0.5 h / concentration at 1 h / concentration at 2 h / concentration at 4 h / concentration at 6 h / concentration at 8 h / concentration at 24 h: mouse, in vivo, read-out: Mouse plasma concentration; for concentration at 0.5 h: 0.50 h
Excerpt: Pharmacokinetic data of compounds HLCL-7, HLCL-61, and HLCL-66 taken from an in vivo study is illustrated in Table 10. […]

[7] = 24 hr Quick MTD test, one mouse for each dose; type: in vivo; details: one mouse
Protocol: (§3) Controlled shRNA depletion was evaluated in a murine lymphoma model (Eμ-BRD2 (Chung, J., et al. (2013) J. Biological Chemistry 288, 35534-35547)) and human xenograft model of glioblastoma (Yan, F., et al (2014) Cancer Research In Press). Referring to FIG. 62A, controlled expression of a PRMT5 shRNA (solid line) but not control shRNA (dashed line) leads to 100% survival of mice engrafted primary DLBCL tumor cells. […] The maximum tolerated dose (MTD, single dose) was identified at 50 mg/kg (see Table 11 below). A sub-toxic dose (25 mg/kg) was used to treat FcMCL mice. Control mice developed peripheral blood and lymph node tumor burden starting day 20 post-engraftment.

[8] = MTD study, four mice each dose; type: in vivo
Protocol: as §3

FcMCL mice = assay: FcMCL mantle cell lymphoma mouse model; type: in vivo; details: 25 mg/kg, IP, every other day
Protocol: as §3

[9] = incubation time not given (24, 48, 72 h tested)
[10] = IV 5 mg/kg, Tween80 formulation

T1 sequence (O14744 2-637 limits assumed): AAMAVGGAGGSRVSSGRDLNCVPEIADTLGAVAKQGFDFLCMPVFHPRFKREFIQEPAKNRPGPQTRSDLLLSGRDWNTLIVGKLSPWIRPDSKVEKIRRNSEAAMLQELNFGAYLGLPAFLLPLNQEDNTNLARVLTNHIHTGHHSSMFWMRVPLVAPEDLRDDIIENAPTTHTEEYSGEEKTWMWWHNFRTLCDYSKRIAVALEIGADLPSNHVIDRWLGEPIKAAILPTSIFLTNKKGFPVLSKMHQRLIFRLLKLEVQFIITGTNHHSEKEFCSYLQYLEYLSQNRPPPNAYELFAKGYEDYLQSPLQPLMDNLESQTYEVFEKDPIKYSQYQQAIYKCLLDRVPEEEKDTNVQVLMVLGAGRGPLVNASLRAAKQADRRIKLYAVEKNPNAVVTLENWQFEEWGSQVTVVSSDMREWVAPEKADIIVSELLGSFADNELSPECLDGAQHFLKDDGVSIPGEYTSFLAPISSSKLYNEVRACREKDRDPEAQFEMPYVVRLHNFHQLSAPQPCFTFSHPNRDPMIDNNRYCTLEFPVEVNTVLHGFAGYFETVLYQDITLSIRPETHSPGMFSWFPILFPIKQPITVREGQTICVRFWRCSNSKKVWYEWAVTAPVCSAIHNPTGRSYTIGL
T1 sequence (Q9BQA1 2-342 partner limits assumed): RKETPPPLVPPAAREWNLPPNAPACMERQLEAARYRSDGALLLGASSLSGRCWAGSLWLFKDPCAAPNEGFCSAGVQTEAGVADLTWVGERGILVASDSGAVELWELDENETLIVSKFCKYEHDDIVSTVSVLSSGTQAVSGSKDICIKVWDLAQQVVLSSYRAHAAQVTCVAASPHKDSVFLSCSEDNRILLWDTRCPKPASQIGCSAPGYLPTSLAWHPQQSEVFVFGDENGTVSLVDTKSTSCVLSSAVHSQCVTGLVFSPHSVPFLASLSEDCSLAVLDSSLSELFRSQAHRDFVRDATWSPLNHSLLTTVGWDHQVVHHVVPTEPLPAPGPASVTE
T2 sequence (O14744 whole entry): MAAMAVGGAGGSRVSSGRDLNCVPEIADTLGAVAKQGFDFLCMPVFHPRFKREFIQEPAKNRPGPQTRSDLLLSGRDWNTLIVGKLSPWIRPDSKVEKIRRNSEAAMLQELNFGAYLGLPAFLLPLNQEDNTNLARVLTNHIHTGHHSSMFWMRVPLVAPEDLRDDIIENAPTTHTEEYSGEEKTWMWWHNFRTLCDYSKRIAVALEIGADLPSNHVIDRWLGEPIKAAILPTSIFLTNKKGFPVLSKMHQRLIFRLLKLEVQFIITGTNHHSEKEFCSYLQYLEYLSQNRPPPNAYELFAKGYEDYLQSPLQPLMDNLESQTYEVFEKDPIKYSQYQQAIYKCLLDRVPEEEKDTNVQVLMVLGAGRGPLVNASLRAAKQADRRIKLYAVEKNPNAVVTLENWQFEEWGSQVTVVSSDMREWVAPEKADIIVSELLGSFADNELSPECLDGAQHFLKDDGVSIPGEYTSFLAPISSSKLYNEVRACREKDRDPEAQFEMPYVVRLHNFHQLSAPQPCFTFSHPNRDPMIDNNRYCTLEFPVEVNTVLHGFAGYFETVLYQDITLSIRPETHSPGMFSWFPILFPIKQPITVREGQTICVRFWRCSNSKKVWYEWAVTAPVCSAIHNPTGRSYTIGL
T2 sequence (Q9BQA1 whole entry partner): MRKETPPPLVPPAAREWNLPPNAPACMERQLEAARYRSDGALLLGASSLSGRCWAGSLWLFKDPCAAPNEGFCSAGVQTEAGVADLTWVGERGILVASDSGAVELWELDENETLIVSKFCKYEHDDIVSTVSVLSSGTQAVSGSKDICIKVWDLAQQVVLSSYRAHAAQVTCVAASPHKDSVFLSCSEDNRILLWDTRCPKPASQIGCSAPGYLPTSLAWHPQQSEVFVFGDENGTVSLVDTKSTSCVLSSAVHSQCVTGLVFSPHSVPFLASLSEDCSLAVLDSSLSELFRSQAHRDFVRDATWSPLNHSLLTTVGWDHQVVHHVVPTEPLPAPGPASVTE
T3 sequence (Q63009 whole entry): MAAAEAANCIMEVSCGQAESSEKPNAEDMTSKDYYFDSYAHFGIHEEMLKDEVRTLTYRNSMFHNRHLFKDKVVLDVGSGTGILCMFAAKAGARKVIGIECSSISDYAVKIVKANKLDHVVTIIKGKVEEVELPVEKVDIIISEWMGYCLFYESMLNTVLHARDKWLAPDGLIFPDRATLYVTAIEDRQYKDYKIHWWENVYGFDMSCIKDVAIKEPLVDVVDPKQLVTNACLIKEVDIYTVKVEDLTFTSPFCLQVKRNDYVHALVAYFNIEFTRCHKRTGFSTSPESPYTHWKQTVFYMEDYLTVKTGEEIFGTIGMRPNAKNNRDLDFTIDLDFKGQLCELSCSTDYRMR

SMILES: CCn1c2ccccc2c2cc(CNCc3ccccn3)ccc21 [CMP5, reference compound]
potency, proliferation of multiple cell lines (multiple cell lines): low micromolar range | PRMT5 driven epigenetic marks (symmetrically methylated H4(Me2)R3, H3(Me2)R8) (JeKo cells): interferes with PRMT5 driven epigenetic marks

SMILES: COc1ccc(C(=O)Nc2sc3c(c2C(N)=O)CCCC3)cc1OC [FLT3 inhibitor (CALBIOCHEM #343020)]
PRMT5 expression and phosphorylation levels [1]: did not change

SMILES: CS(=O)(=O)c1ccc(C(O)C(O)Cn2c3ccccc3c3ccccc32)cc1 (centres unmarked) [HLCL-17&20]
IC50 [2, 9]: > 50 µM | IC50 [3]: > 50 µM

SMILES: CS(=O)(=O)c1ccc(NCCn2c3ccccc3c3ccccc32)cc1 [HLCL-23]
IC50 [2, 9]: > 50 µM | IC50 [3]: > 50 µM

SMILES: CCn1c2ccccc2c2cc(CNc3ccc(S(N)(=O)=O)cc3)ccc21 [HLCL-32]
IC50 ([2]; 24 h incubation): 51 µM | IC50 ([2]; 48 h incubation): 29 µM | IC50 ([2]; 72 h incubation): 29 µM | EC50 ([4]; 24 h): 30 µM | EC50 ([4]; 48 h): 20 µM | IC50 [3]: > 50 µM | inhibition of PRMT5 enzyme [5]: the only enzyme that is affected is PRMT5 | IC50 [5]: ~5 µM | inhibition of PRMT1 enzyme (recombinant PRMT1; 10 μM, FIG. 17B): this non-specific activity is lost | inhibition of PRMT1 enzyme (recombinant PRMT1; 20 μM and above, FIG. 17A): non-specific inhibition

SMILES: CS(=O)(=O)c1ccc(/C=C/Cn2c3ccccc3c3ccccc32)cc1 [HLCL-63]
IC50 [2, 9]: > 50 µM | IC50 [3]: > 50 µM

SMILES: CS(=O)(=O)c1ccc(/C=C\Cn2c3ccccc3c3ccccc32)cc1 [HLCL-64]
IC50 [2, 9]: > 50 µM | IC50 [3]: > 50 µM | inhibition of PRMT5 enzyme [5]: the only enzyme that is affected is PRMT5 | IC50 [5]: ~5 µM | inhibition of PRMT1 enzyme (recombinant PRMT1; 10 μM, FIG. 17B): this non-specific activity is lost | inhibition of PRMT1 enzyme (recombinant PRMT1; 20 μM and above, FIG. 17A): non-specific inhibition

SMILES: CCn1c2ccc(Br)cc2c2cc(CNCc3ccccc3OC)ccc21 [HLCL-65]
IC50 ([2]; 24 h incubation): 9 µM | IC50 ([2]; 48 h incubation): 8 µM | IC50 ([2]; 72 h incubation): 6 µM | EC50 ([4]; 24 h): 4 µM | EC50 ([4]; 48 h): 5 µM | IC50 [3]: 30 µM | potency, proliferation of multiple cell lines (multiple cell lines): low micromolar range | peak plasma concentrations ([6]; IV and IP routes at a dose of 25 mg/kg, FIG. 62B): 8 to 20 µM | concentration at 0.08 h ([6]; IP 25 mg/kg, DMSO solution): 6240 nM | concentration at 0.17 h ([6]; IP 25 mg/kg, DMSO solution): 6270 nM | concentration at 0.33 h ([6]; IP 25 mg/kg, DMSO solution): 5280 nM | concentration at 0.5 h ([6]; IP 25 mg/kg, DMSO solution): 1660 nM | concentration at 1 h ([6]; IP 25 mg/kg, DMSO solution): 1590 nM | concentration at 2 h ([6]; IP 25 mg/kg, DMSO solution): 8450 nM | concentration at 4 h ([6]; IP 25 mg/kg, DMSO solution): 4510 nM | concentration at 6 h ([6]; IP 25 mg/kg, DMSO solution): 5480 nM | concentration at 8 h ([6]; IP 25 mg/kg, DMSO solution): 3710 nM | concentration at 24 h ([6]; IP 25 mg/kg, DMSO solution): 480 nM | concentration at 0.08 h [6, 10]: 2940 nM | concentration at 0.17 h [6, 10]: 2050 nM | concentration at 0.33 h [6, 10]: 2940 nM | concentration at 0.5 h [6, 10]: 2390 nM | concentration at 1 h [6, 10]: 1890 nM | concentration at 2 h [6, 10]: 1930 nM | concentration at 4 h [6, 10]: 1530 nM | concentration at 6 h [6, 10]: 720 nM | concentration at 8 h [6, 10]: 513 nM | concentration at 24 h [6, 10]: 29.6 nM | survival after dosing ([7]; IP-50 mg/kg): Alive 24 hr after | clinical signs after dosing ([7]; IP-100 mg/kg, after 24 hr): paralyzed | clinical signs after dosing ([7]; IP-200 mg/kg): Paralyzed after dosing, | survival after dosing ([7]; IP-200 mg/kg): dead within 1 hr | survival after dosing ([7]; IV-2.5 mg/kg): Dead instantly after | survival after dosing ([7]; IV-5 mg/kg): Alive 24 hr after | survival after dosing ([7]; IV-10 mg/kg): Dead instantly after | survival after dosing ([7]; IV-20 mg/kg): Dead instantly after | survival 24 hr after dosing ([8]; IP-5 mg/kg, four mice): Alive 24 hr after | condition within 1 hr after dosing (alive but slow moving) ([8]; IP-50 mg/kg, four mice): Alive within 1 hr after | survival 24 hr after dosing ([8]; IP-50 mg/kg, four mice): moving. Alive 24 hr | MTD at 24 h ([8]; mouse, in vivo, single dose, mice, read-out: maximum tolerated dose (MTD, single dose)): 50 mg/kg | tumor burden in FcMCL mice (FcMCL mice; lymph node versus peripheral blood): controlling development of lymph node tumor burden but not peripheral blood FcMCL tumor burden | survival of FcMCL mice (FcMCL mice; preliminary experiment): improved survival

SMILES: CO[C@@H]1[C@H](N(C)C(=O)c2ccccc2)C[C@H]2O[C@]1(C)n1c3ccccc3c3c4c(c5c6ccccc6n2c5c31)C(=O)NC4 [PKC412]
PRMT5 expression and phosphorylation levels [1]: did not change

Now from value to compound, other results behind:

IC50 [2, 9]: > 50 µM | IC50 [3]: > 50 µM
SMILES: CS(=O)(=O)c1ccc(Cn2c3ccccc3c3ccccc32)cc1 [HLCL-1]

IC50 [2, 9]: > 50 µM | IC50 [3]: > 50 µM
SMILES: CCn1c2ccccc2c2cc(NC(=S)Nc3ccc(S(C)(=O)=O)cc3)ccc21 [HLCL-6]

IC50 [2, 9]: > 50 µM | IC50 [3]: > 50 µM
SMILES: CCn1c2ccccc2c2cc(CNc3ccc(S(C)(=O)=O)cc3)ccc21 [HLCL-9]

IC50 ([2]; 24 h incubation): 84 µM | IC50 ([2]; 48 h incubation): 47 µM | IC50 ([2]; 72 h incubation): 60 µM | EC50 ([4]; 24 h): 40 µM | EC50 ([4]; 48 h): 35 µM | IC50 [3]: > 50 µM | IC50 [5]: ~5 µM | inhibition of PRMT1 enzyme (recombinant PRMT1; 10 μM, FIG. 17B): this non-specific activity is lost | inhibition of PRMT1 enzyme (recombinant PRMT1; 20 μM and above, FIG. 17A): non-specific inhibition
SMILES: CCn1c2ccccc2c2cc(CNCc3ccc(S(C)(=O)=O)cc3)ccc21 [HLCL-10]
inhibition of PRMT5 enzyme [5]: the only enzyme that is affected is PRMT5

IC50 [2, 9]: > 50 µM | IC50 [3]: > 50 µM
SMILES: CCn1c2ccccc2c2cc(/C=N/Nc3ccc(S(C)(=O)=O)cc3)ccc21 [HLCL-12]
